Test results published in US7416741B2, “Copper lowering treatment of inflammatory and fibrotic diseases” (The Regents of the University of Michigan, priority 2002, dated 2008).

What was measured:
[1] = tested on: serum ceruloplasmin (Cp); assay: Copper status by serum ceruloplasmin (oxidase activity) in mice; format: in vivo, mouse; settings: for Ceruloplasmin Values: Ex 1 Exp 2
Source text: Copper status. In the presence of TM therapy, copper status is difficult to assess by measuring serum copper directly, since a slowly turning over tripartite complex of TM, copper, and albumin accumulates, causing the serum copper to be elevated even though availability of copper is decreasing. However, the inventors have previously determined that serum ceruloplasmin (Cp) is a good surrogate marker of copper status (G J Brewer et al., Clin. Cancer, 6: 1-10 [2000]), because the liver secretes this copper containing protein into the blood at a rate dependent upon copper availability. Copper status was followed by assaying serum ceruloplasmin (Cp), by measuring its oxidase activity (K H Schosinsky et al., Clin. Chem., 20(12)1556-1563 [1974]). Blood was obtained from the tail vein of the mice. To avoid excessive bleeding, only one mouse from each group was bled at any time point during the study, and mice were rotated so that different mice were bled at the different time points. A Cp assay in all mice was done at time of sacrifice.
Copper status. In the presence of TM therapy, copper status cannot be assessed by direct measurement of serum copper because of the accumulation of a tripartite complex of TM, copper, and albumin that turns over slowly, causing the serum copper to be increased even though availability of copper is decreasing. […] Copper status was monitored by assaying serum ceruloplasmin on the basis of its oxidase activity in blood from the tail vein. To avoid excessive bleeding, one mouse from each group was bled at each time point; mice were rotated so that different mice were bled. A ceruloplasmin assay was conducted in each mouse when it was killed.

[2] = tested on: TGFβ; assay: TGFβ ELISA in brain homogenates of Tg2576 mice; format: in vivo, mouse; settings: Ex 8; TM-treated Tg2576 mice
Experimental: Brain homogenates of left hemi-brains are used for detection of human Aβ40 and Aβ42 by ELISA, as previously described (J Gau J et al., Amer. J. Pathology, 160 2:731-738 […]). Homogenates are centrifuged at 7840×g for 5 minutes at 4 ° C. to remove insoluble material. A sandwich ELISA is performed on the supernatants using BAN50 as the capture antibody and either horseradish peroxidase-coupled BA-27 or BC-05 as the detection antibody for Aβ40 or Aβ42, respectively. BAN-50 is a monoclonal antibody specific for Aβ1-10. All samples are measured in triplicate. Standard curves for the ELISA are constructed using pure human Aβ40 and Aβ42 (Bachem). In addition to measurements of Aβ, a commercially available ELISA is used to detect TGFβ levels in brain homogenates of the two groups.

[3] = tested on: Con A mouse model; assay: Serum ALT in the Con A mouse model of liver damage; format: in vivo; settings: for Serum ALT / Serum ALT, Mean: Ex 5 Exp 1; for Serum ALT: one mouse; for Serum ALT, Mean: after 4th injection
Experimental: A study was carried out in a mouse model of concanavilin A (Con A) production of liver cirrhosis. There were four experimental groups of several mice each. […] The Con A was injected intravenously once weekly into mice (0.3 mg/mouse/week), and produced a hepatitis, which is manifested by an increasing level of alanine transaminase (ALT) enzymes in the blood. The TM was given once daily by […] in a dose of 0.7 mg/mouse/day beginning 7 days prior to ConA treatment. During days 9 to 11 after Con A, the TM-treated mice received 1.2 mg of TM daily, to ensure adequate lowering of copper levels, and then received 0.7 mg daily for the duration of the study. A blood sample was obtained 28 days after ConA treatment, and the mice were sacrificed on the same day. Serum alanine transaminase (ALT) was measured in Sigma-Frankel (SF) units, where one unit is the formation of 0.000482 umoles of glutamate/minute at pH 7.5 and 25 ° C.
This example describes additional TM treatment experiments in the model Concanavalin (Con A) mouse model of liver damage. As described previously, in the Con A mouse model, intravenously administered Con A produces an inflammatory reaction and cell damage in the animal's liver that is marked by the release hepatic transaminase enzymes, such as […] (ALT), into the blood. Several different experiments are reported in this example
Twenty-four hours after each of the first three injections, one mouse from each group was bled, and serum ALT measured. In this experiment, TM was started in the TM treated mice before the first Con A injection. After the fourth injection of Con A, all the mice were bled for ALT and Cp measurements and the experiment terminated. The Cp levels in TM treated mice were 25-50% of non-TM treated animals.
In a second experiment, Con A was given in weekly injections for four weeks, prior to any treatment with TM. The objective was to see if TM treatment would be useful after considerable organ damage had been allowed to occur. Then, one group of Con A treated animals were initiated on TM therapy.

[4] = tested on: carbon tetrachloride (CT) mouse model; assay: Serum ALT in the carbon tetrachloride (CT) mouse model of liver damage; format: in vivo; settings: Ex 6; TM from week 5; sacrifice week 12; p<0.0008; protection only partial
Experimental: The carbon tetrachloride (CT) mouse model produces much more liver fibrosis (cirrhosis) than the Con A model. In this model carbon tetrachloride is injected intraperitoneally twice weekly, and after 12 weeks, a well-established cirrhosis should be present. This can be evaluated histologically, and can be quantitated by measuring liver hydroxyproline, a major amino acid in collagen. The TM was started in TM treated animals at the beginning of week 5 and the animals were sacrificed at week 12.
There were 4 animals in the CT group, 4 in the CT/TM group, 2 in the olive oil/TM group, and 1 in the TM group. Since there were so few animals in the last two groups, and since their data were generally similar, they were combined.

[5] = tested on: rodent cancer models; settings: five different rodent cancer models; cited from earlier work
[6] = tested on: vascular endothelial growth factor (VEGF); assay: Retinopathy of prematurity in newborn mice; format: in vivo, mouse; settings: hyperoxia then room air
Experimental: The present invention also contemplates the antiangiogenic therapeutic effects of TM in diseases of neovascularization besides cancer (e.g., animal models of retinopathy). In retinopathy of prematurity, newborn mice exposed to hyperoxia for five days develop a marked retinopathy after four days exposure to room air, with a peak of a major angiogenic stimulus, vascular endothelial growth factor (VEGF), at 24 hours.

[SH-].[SH-].[S]=[Mo]=[S] [TM, tetrathiomolybdate]
Ceruloplasmin ([1]; Ex 1 Exp 1, Bleomycin/TM group, sacrifice day 21): 13.9 ± 3.3 I.U | mean ceruloplasmin relative to saline controls ([1]; Ex 1 Exp 1, TM alone (group 4)): about 80% | Ceruloplasmin ([1]; Ex 1 Exp 1, TM only group, sacrifice day 21): 18.1 ± 3.4 I.U | mean ceruloplasmin level relative to bleomycin animals ([1]; Ex 1 Exp 1, bleomycin/TM mice (group 3)): about 55% | Ceruloplasmin Values ([1]; TM 0.3 mg/day/mouse, day 14, single mouse): 23.6 International Units | Ceruloplasmin Values ([1]; TM 0.3 mg/day/mouse, day 21 (sacrifice), mean and standard error of four mice): 5.4 ± 2.7 International Units | Ceruloplasmin Values ([1]; TM 0.5 mg/day/mouse, day 8, single mouse): 14.4 International Units | Ceruloplasmin Values ([1]; TM 0.5 mg/day/mouse, day 14, single mouse): 10.6 International Units | Ceruloplasmin Values ([1]; TM 0.5 mg/day/mouse, day 21, mean and SE of four mice): 4.5 ± 2.7 International Units | Ceruloplasmin Values ([1]; TM 0.7 mg/day/mouse, day 8, single mouse): 12.6 International Units | Ceruloplasmin Values ([1]; TM 0.7 mg/day/mouse, day 14, single mouse): 15.5 International Units | Ceruloplasmin Values ([1]; TM 0.7 mg/day/mouse, day 21, mean and SE of four mice): 4.7 ± 2.2 International Units | Ceruloplasmin Values ([1]; TM 0.9 mg/day/mouse, day 8, single mouse): 0.6 International Units | Ceruloplasmin Values ([1]; TM 0.9 mg/day/mouse, day 14, single mouse): 3.7 International Units | Ceruloplasmin Values ([1]; TM 0.9 mg/day/mouse, day 21, mean and SE of four mice): 1.8 ± 0.7 International Units | Ceruloplasmin Values ([1]; TM maintenance 0.3 mg/day/mouse, day 8, single mouse): 20.3 International Units | mean Cp levels in TM treated groups relative to non-TM treated groups ([1]; Ex 2 Exp 1, TM 1.2 mg/day 4 days before bleomycin then 0.9 mg/day, sacrifice day 7): approximately half | mean Cp level of bleomycin/TM group as % of the bleomycin group mean ([1]; Ex 2 Exp 2, TM started 5 days after bleomycin, sacrifice day 21): 38% | mean Cp of TM control group as % of the saline control group mean ([1]; Ex 2 Exp 2, sacrifice day 21): 50% | serum Cp levels relative to baseline levels ([1]; daily gavage of 0.7 mg TM/mouse): 25-50% | levels of TGFβ in brain homogenates [2]: significant reduction | ConA induced increase of serum alanine transaminase (ALT) ([3]; Ex 4, TM 0.7 mg/mouse/day from 7 days before ConA, 28 days): almost completely inhibits | Serum ALT ([3]; Con A + TM, 24 h after 1st Con A injection): 52 Sigma-Frankel units | Serum ALT ([3]; Con A + TM, after 2nd injection): 50 Sigma-Frankel units | Serum ALT ([3]; Con A + TM, after 3rd injection): 63 Sigma-Frankel units | Serum ALT, Mean ([3]; Con A + TM, n 4): 74^2,3 Sigma-Frankel units | Serum ALT ([3]; TM only control, 24 h after 1st injection): 85 Sigma-Frankel units | Serum ALT ([3]; TM only control, after 2nd injection): 39 Sigma-Frankel units | Serum ALT ([3]; TM only control, after 3rd injection): 49 Sigma-Frankel units | Serum ALT, Mean ([3]; TM only control, n 3): 38 Sigma-Frankel units | ALT values ([3]; Ex 5 Exp 2, TM started after four weeks of weekly Con A, Con A continued): returned to normal | serum ALT, CT/TM group mean vs CT group [4]: significantly lower | inhibition of tumor growth [5]: dramatic effects on inhibition of tumor growth | VEGF peak [6]: strong inhibition | retinal neovascularization [6]: dramatic reduction
